For one assay, the target named is γ-secretase complex (Homo sapiens, UniProt P49768). Briefly: APP-C99 counter assay (GSI reporter assay). In kind it is cell-based. Details: AUC APP: scale not given here. Conditions: for AUC APP: area under the 14-point dose-response curve, replicates averaged; for APP assay: overview in comparison to compound C, Supplemental Fig. 9; for Hill-slope / curve fit information: bottom constrained to Emax of positive control LY-411575. How it is done: To this end, we used a previously established reporter gene-based GSI assay (APP-C99) (Fig. 3A), which measures γ-secretase activity through cleavage of amyloid precursor protein (APP), another protein processed by the γ-secretase complex[24]
Plasmids for APP and luciferase are described in[24] and the renilla plasmid described above generated for this project was used to normalize firefly values. 24 h post transfection cells were seeded on compound plates and cells were cultivated for 24 h before luciferase signals were read, as described.
Two-fold concentrations of compounds were diluted in 10 µl cell culture medium and brought to one-fold by seeding 10 µl containing 4000 cells of the respective cell type on each well of a 384-well plate, as described above. Analogous to the previous assays, all plates contained one DMSO and DAPT control column with the Notch reporter cell line (#A1-11) and a DMSO only and Notch inhibitor control plate was read before the measuring the screening plates. In addition, DAPT and DMSO were spotted in a dose response fashion, and a minimum of four replicates were read. Dose-responses of compounds were recorded in triplicates for each concentration reading out the dual luciferase reporters, as described above. Dose response assays were read together in one session. To measure compound effects, the different assays dose–response curves were fitted using the log(inhibitor) vs. response – Variable slope (model: Y = Bottom + (Top–Bottom)/(1 + 10^((LogIC50-X)*HillSlope)) equation.
A DMSO plate was read before measuring luciferase activity of compound spotted plates. APP firefly luciferase reporter assays were read with a signal integration time of 0.1 s, instead of 0.5 s used for the Notch reporter to reduce signal overlap between wells. […] The area-under-the-curve (AUC) was calculated on dose–response curves using Graphpad Prism.
A general note: In a reporter assay the amount or activity of a reporter protein is the signal.

Another assay concerns Notch signalling. The experiment in a line: Notch reporter assay (12xCSL firefly luciferase / renilla luciferase, HEK293T Notch1ΔE reporter cell line clone #A1-11). To be noted: for Bottom (Emax): Emax indicated independent from assay constraints, in % (unit assumed); for AUC Notch: area under the 14-point dose-response curve; for Notch assay: overview in comparison to compound C, Supplemental Fig. 9. Details: AUC Notch: scale not given here. In kind it is cell-based. An excerpt:
To identify novel Notch inhibitors in an unbiased manner, we generated a novel Notch reporter construct, which records the level of Notch signalling immediately downstream of receptor activation rather than further downstream in the signalling cascade, for example at the level of Hes and Hey proteins (Fig. 1B). […] The reporter construct carries piggy-bac sequences at both ends of the promoter-reporter cassette as well as cSH4 insulator elements to reduce transcriptional noise[21] and was transfected into HEK293T cells. To achieve a robust level of Notch receptor activity in the HEK293T reporter cell line and to confine the search for inhibitors to compounds affecting the receptor function and eliminating the need for ligand activation, a truncated ligand-independent version of the Notch1 receptor, mimicking an S2-cleaved Notch1 receptor (Notch1ΔE) and spontaneously activated by S3-cleavage[22] (Fig. 1C) was introduced into the cell line carrying the reporter construct (Fig. 1D). In addition, an HSV-TK-renilla luciferase plasmid was introduced into the cell line as an internal control for normalisation of the reporter expression (Fig. 1D).
A de novo Notch reporter construct, composed of six dimeric CSL binding sites linked to a basic b-globin promoter and followed by a firefly luciferase gene and a PEST degradation domain was synthesised (GeneArt). The construct was stably introduced into HEK293T cells, and zeocin (0.1 mg/ml) or Puromycin (0.05 mg/ml (ThermoFisher, cat #R25001, #A1113803) were used as selection markers. A clonal cell line (clone #A1) with robust renilla expression and enhanced firefly luciferase expression upon transient transfection of Notch1 ICD or Notch1ΔE constructs was selected, and a UB6 promoter-Notch1DE construct was stably introduced into this cell line using Blasticidin (0.1 mg/ml; ThermoFisher, cat #A1113903) as a selection marker. Stable cell lines were generated by serial dilution and only clonal colonies were selected for further evaluation. To measure luciferase reporter activity, cells were washed in cold PBS, detached, and collected in pre-warmed cell culture medium and centrifugated for five min at 200xg. The cell pellet was resuspended in medium, cells were counted, and 4,000 cells were seeded in each well of a white 384 well plate (Corning #3670) in 20 µl medium containing either DMSO or the GSI DAPT (N-[N-(3,5-Difluorophenacetyl)-L-alanyl]-S-phenylglycine t-butyl ester, Sigma-Aldrich, cat #565784-M) and incubated for 24 h. The efficacy of the reporter gene system was determined by monitoring the level of luciferase activation in the absence or presence of different amounts of DAPT in several cell clones. Luciferase activity was assessed using the dual-GLO luciferase detection kit from Promega (cat # E2920), following the manufacturer’s instructions. A minimum of two technical replicates were measured per clone using a SpectraMaxi3 plate reader (Molecular Devices). Reporter activity of different clones and in response to DAPT was assessed by normalising firefly (Notch activity) to renilla luciferase signals. Normalised signals of individual clones cultivated in DMSO were then compared to corresponding signals generated with DAPT-treated cells. The cell clone with the strongest signal to control ratio (DMSO to DAPT) was then selected for further exploration (clone #A1-11).
37,966 compounds were spotted by the compound center at SciLifeLab (https://www.scilifelab.se/) on a total of 120 plates (Greiner #781080) at a fixed concentration of 10 µM and the screening process spanned five consecutive sessions. The layout of each plate contained one column for DMSO and one for DAPT controls to determine the quality and reliability of the data. DAPT controls were spotted at 10 µM and DMSO was spotted in an equimolar volume. In addition, plates spotted with only DMSO were utilized to investigate the impact of plate effects before and after each session. […]

Where [1] appears, read: 9p dose response, AUCs averaged when replicates available.
Where [2] appears, read: 9p dose response, log10 of averaged IC50.
[3] abbreviates: 14p dose response, AUCs averaged when replicates available.
Setting [4] is: Homo sapiens, HEK-293T, 14-point dose-response, Fig. 4, read-out: approximated IC50, Notch reporter assay.
Where [5] appears, read: Homo sapiens, HEK-293T, 14p Notch assay DR, bottom constrained to Emax of positive control DAPT, read-out: approximated IC50.
The mark [6] stands for this setting: Homo sapiens, HEK-293T, 14p Notch assay DR, log10 value, bottom constrained to Emax of positive control DAPT, read-out: approximated LogIC50 (converted).

Where “and” joins values, the source holds several entries; their conditions need not be identical. Identical values can stand only once. Like-named read-outs stand apart in the source and are kept apart here.

Regarding `NC(=O)[C@@H](CC1CC1)[C@@H](CCC(F)(F)F)C(=O)N[C@H]1N=C(c2ccccc2)c2cccc(F)c2NC1=O` [BMS-983970, reference compound], the “Hill-Slope 9p APP counter assay averaged” value at γ-secretase complex (9p dose response) was -1.6. Moreover, the “AUC 9p APP-counter assay” value on γ-secretase complex (setting [1]) is given as 2.41E+02. The IC50 at γ-secretase complex (9p dose response, averaged, read-out: 9p APP counter assay averaged IC50s) is 22 nM; at γ-secretase complex (9p dose response, read-out: approximated IC50s 9p APP counter assay), 22 nM; on γ-secretase complex (14-point, unit inferred, some fits outside of tested concentration range, read-out: approximated IC50s 14p APP-counter assay), 400 nM; on γ-secretase complex (14p APP assay DR, Notch inhibitor controls, no bottom constraint named, read-out: approximated IC50), 44 nM and 70 nM; on γ-secretase complex (14p dose response, averaged over replicates, read-out: 14p APP counter assay averaged IC50s), 57 nM; in the assay on Notch signalling (9p dose response, single replicates, read-out: approximated IC50s 9p Notch reporter assay), 1.2 nM. Besides, the IC50 in the assay on Notch signalling (9p dose response, averaged over replicates, read-out: 9p Notch reporter assay averaged IC50s) is 1.2 nM; with Notch signalling (14-point, unit inferred, replicates averaged, read-out: approxiated IC50s 14p Notch reporter assay) it was 3.6 nM; in the assay with Notch signalling (14p Notch assay DR, Notch inhibitor controls, no bottom constraint named, read-out: approximated IC50) it was 3.6 nM and ~2.3 nM; in the assay with Notch signalling (14p Notch assay DR, averaged when replicate measurements were available, read-out: averaged IC50s), 3.6 nM; in the assay on Notch signalling (14p dose response, single replicates, read-out: approximated IC50s 14p Notch reporter assay), 3.6 nM and 3.5 nM; in the assay with Notch signalling (14p dose response, averaged over replicates, read-out: 14p Notch reporter assay averaged IC50s) it was 3.6 nM. Moreover, the “9p APP counter assay averaged IC50s (log)” value at γ-secretase complex (setting [2]) is -7.7. Moreover, the “Bottom (Emax)” value is 45.9 and 48.3 at γ-secretase complex (14p APP assay DR, Emax indicated independent from assay constraints); 49.6 and 50.5 and 62.5 in the assay on Notch signalling (14p Notch assay DR). For the same molecule, at γ-secretase complex (setting [3]), the “AUC. 14p APP-counter assay” value is recorded as 4.87E+02. Further, the “AUC APP” value at γ-secretase complex worked out at 486.6. Further, the APP assay result at γ-secretase complex is “higher potency”. In addition, the “AUC 9p Notch reporter assay” value in the assay on Notch signalling (setting [1]) is on record as 2.16E+02. Moreover, the “9p Notch reporter assay averaged IC50s (log)” value in the assay on Notch signalling (setting [2]) is -8.9. For the same molecule, the “approximated LogIC50 [M]” value with Notch signalling (14p Notch assay DR, log10 value, Notch inhibitor controls, no bottom constraint named) is on record as -8.5 M. In the assay with Notch signalling (setting [3]), the “AUC 14p Notch reporter assay” value worked out at 4.10E+02. Further, the “14p Notch reporter assay averaged IC50s (log)” value in the assay on Notch signalling (14p dose response, log10 of averaged IC50) was -8.4. In addition, the “AUC Notch” value with Notch signalling (replicates averaged) amounted to 410.0. Also, the Notch assay entry in the assay with Notch signalling is “higher potency”.

As for `CC(=O)Nc1cccc(-c2cn3ccnc3c(Nc3ccc(N4CCOCC4)cc3)n2)c1` [CBK066362], the Hill-slope on γ-secretase complex (14p APP assay DR) is 0.3. Also, the “AUC APP” value on γ-secretase complex is 828.0. For the same molecule, the “Bottom (Emax)” value in the assay with Notch signalling (14p Notch assay DR) is given as 95.3. Also, in the assay with Notch signalling (replicates averaged), the “AUC Notch” value was found to be 529.0.

In the case of `CC(=O)N1CCc2sccc2C1c1ccccc1NC(=O)c1ccco1` (centres unmarked) [CBK286436], the curve fit information result on γ-secretase complex (14p APP assay DR) was “IC50 indeterminate”. Moreover, the “AUC APP” value on γ-secretase complex is on record as 642.7. For the same molecule, the “Bottom (Emax)” value in the assay on Notch signalling (14p Notch assay DR) is on record as 99.7. In the assay on Notch signalling (replicates averaged), the “AUC Notch” value is 629.0.

Take `CCn1ncc(CN(C)C(=O)c2cc(-c3cccnc3)nc3ccc(Cl)cc23)c1C` [CBK276708]: the curve fit information result at γ-secretase complex (14p APP assay DR) is given as “IC50 indeterminate”. Also, at γ-secretase complex, the “AUC APP” value is 735.5. Moreover, the “Bottom (Emax)” value in the assay with Notch signalling (14p Notch assay DR) is 29.2. Besides, the IC50 was above 5000 nM with Notch signalling (setting [4]), 10000 nM with Notch signalling (setting [5]) and 10000 nM in the assay on Notch signalling (setting [6]). The “AUC Notch” value in the assay with Notch signalling (replicates averaged) was 559.0.

Consider `Cc1ccccc1CN1CCC2(CC1)OCCc1c2[nH]c2ccc(Br)cc12` [CBK040353], for which, at γ-secretase complex (14p APP assay DR), the Hill-slope is listed as 0.0279. Also, the “AUC APP” value at γ-secretase complex worked out at 724.9. Also, the “Bottom (Emax)” value with Notch signalling (14p Notch assay DR) worked out at 48.2. Also, the results for the IC50 in the assay with Notch signalling (setting [4]), with Notch signalling (setting [5]) and in the assay on Notch signalling (setting [6]) were 1800 nM, 1700 nM and 1580 nM, respectively. In addition, the “AUC Notch” value in the assay with Notch signalling (replicates averaged) was 584.0.

Turning to `COc1cc(Nc2nc(-c3ccc(Cl)cc3)cn3ccnc23)cc(OC)c1OC` [CBK066238], on γ-secretase complex (14p APP assay DR), the Hill-slope was determined as 0.0221. The “AUC APP” value on γ-secretase complex stood at 492.9. In the assay with Notch signalling (14p Notch assay DR), the “Bottom (Emax)” value is listed as 82.4. Also, the “AUC Notch” value in the assay on Notch signalling (replicates averaged) is 336.0.

Turning to `CC1=C(C(=O)OC2CCCCC2)C(c2ccc([N+](=O)[O-])cc2)C2=C(CC(C)(C)CC2=O)N1` (centres unmarked) [FLI-06, reference compound], the APP assay entry on γ-secretase complex is “active, potency n.d”. Besides, the “reporter signal in % of DMSO” value in the assay with Notch signalling (10 µM, inhibitor controls, Supplemental Fig. 2A) turned out to be 62%. Moreover, the Notch assay result in the assay with Notch signalling is given as “active, potency n.d”.

With `CC(=O)Nc1cccc(-c2cn3ccnc3c(Nc3cccc(OC(F)(F)C(F)F)c3)n2)c1` [CBK037499], the Hill-slope on γ-secretase complex (14p APP assay DR) was determined as 0.0127. On γ-secretase complex, the “AUC APP” value is recorded as 508.5. Besides, the “Bottom (Emax)” value in the assay with Notch signalling (14p Notch assay DR) is 77.1. Further, the IC50 with Notch signalling (setting [5]) and in the assay with Notch signalling (setting [6]) was above 40000 nM in each case. The “AUC Notch” value in the assay with Notch signalling (replicates averaged) came to 348.0.

The molecule `COc1cc(Nc2cncc(-c3cccc(N(C)C)c3)n2)cc(OC)c1OC` [CBK065722] returned a Hill-slope on γ-secretase complex (14p APP assay DR) of -0.00462. The “AUC APP” value on γ-secretase complex is 501.6. For the same molecule, in the assay with Notch signalling (14p Notch assay DR), the “Bottom (Emax)” value is listed as 82.6. The IC50 with Notch signalling (setting [5]) and in the assay on Notch signalling (setting [6]) was above 40000 nM in each case. Also, in the assay on Notch signalling (replicates averaged), the “AUC Notch” value came out at 354.0.
